From BindingDB's records for doi:10.1016/j.bmcl.2009.07.052 (Incyte, 2009)

Molecular target: Receptor tyrosine-protein kinase erbB-2 (Homo sapiens, UniProt P04626)
Experiment: Inhibition of HER-2

Chain of Receptor tyrosine-protein kinase erbB-2 (P04626 whole entry): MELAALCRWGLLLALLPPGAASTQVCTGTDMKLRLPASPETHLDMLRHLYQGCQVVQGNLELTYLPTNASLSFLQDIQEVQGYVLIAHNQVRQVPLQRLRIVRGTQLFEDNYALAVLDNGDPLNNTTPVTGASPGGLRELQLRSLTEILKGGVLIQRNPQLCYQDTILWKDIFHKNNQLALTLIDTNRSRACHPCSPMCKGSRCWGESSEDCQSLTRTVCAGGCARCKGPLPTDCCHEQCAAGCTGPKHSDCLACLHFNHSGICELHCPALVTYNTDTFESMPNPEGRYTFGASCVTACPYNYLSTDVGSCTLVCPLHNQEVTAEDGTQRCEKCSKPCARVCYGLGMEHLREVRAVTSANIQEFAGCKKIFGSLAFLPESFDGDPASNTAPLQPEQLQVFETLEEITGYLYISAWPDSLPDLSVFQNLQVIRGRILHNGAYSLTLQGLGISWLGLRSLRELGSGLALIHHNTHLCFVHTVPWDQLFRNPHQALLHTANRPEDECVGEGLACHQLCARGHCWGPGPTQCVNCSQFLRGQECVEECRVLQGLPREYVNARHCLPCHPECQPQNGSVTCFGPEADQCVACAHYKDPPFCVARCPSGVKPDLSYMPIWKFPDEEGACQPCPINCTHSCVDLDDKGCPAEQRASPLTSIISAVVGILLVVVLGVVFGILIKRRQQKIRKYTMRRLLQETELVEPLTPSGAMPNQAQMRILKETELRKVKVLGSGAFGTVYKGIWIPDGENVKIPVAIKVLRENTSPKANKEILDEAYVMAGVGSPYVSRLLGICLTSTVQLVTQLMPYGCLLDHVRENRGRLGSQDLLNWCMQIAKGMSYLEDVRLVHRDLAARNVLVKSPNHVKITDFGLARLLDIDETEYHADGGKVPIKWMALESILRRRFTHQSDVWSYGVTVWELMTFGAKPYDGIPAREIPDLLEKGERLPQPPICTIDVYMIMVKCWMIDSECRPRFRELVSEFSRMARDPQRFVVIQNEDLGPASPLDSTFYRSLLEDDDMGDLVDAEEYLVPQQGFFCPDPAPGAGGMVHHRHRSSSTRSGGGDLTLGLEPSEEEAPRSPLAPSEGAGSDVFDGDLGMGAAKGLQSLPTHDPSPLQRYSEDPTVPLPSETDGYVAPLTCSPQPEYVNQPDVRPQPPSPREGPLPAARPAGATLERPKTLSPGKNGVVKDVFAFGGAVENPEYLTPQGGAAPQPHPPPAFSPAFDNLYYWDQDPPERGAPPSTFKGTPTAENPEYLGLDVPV

**Q.** `O=C(NO)[C@H]1CC(OC(=O)N2CCCC2)CN[C@@H]1C(=O)N1CC[C@H](c2ccccc2)C1` (stereo partly drawn) was tested. Which IC50 did it give?
**A.** 0.028 µM

**Q.** How did the IC50 turn out when `CN1C[C@@H](OC(=O)N2CCCC2)C[C@H](C(=O)NO)[C@H]1C(=O)N1CCN(c2ccccc2)CC1` [(3S,5S,6S)-5-(hydroxycarbamoyl)-1-methyl-6-(4-phenylpiperazine-1-carbonyl)piperidin-3-yl pyrrolidine-1-carboxylate] was run?
**A.** 0.0115 µM

**Q.** Which IC50 does the source give for `CN1C[C@@H](OC(=O)N2CC=CC2)C[C@H](C(=O)NO)[C@H]1C(=O)N1CCN(c2ccccc2)CC1` [(3S,5S,6S)-5-(hydroxycarbamoyl)-1-methyl-6-(4-phenylpiperazine-1-carbonyl)piperidin-3-yl 2,5-dihydro-1H-pyrrole-1-carboxylate] here?
**A.** 0.0038 µM

**Q.** `O=C(NO)[C@H]1CC(OC(=O)N2CCCC2)CN[C@@H]1C(=O)N1CC=C(c2ccccc2)CC1` (stereo partly drawn) [(5S,6S)-5-(hydroxycarbamoyl)-6-(4-phenyl-1,2,3,6-tetrahydropyridine-1-carbonyl)piperidin-3-yl pyrrolidine-1-carboxylate] was tested. Which IC50 did it give?
**A.** 0.0056 µM

**Q.** `CC(C)C(=O)N(C)C1CN[C@H](C(=O)N2CC[C@H](c3ccccc3)C2)[C@@H](C(=O)NO)C1` (stereo partly drawn) [(2S,3S)-N-hydroxy-5-(N-methylisobutyramido)-2-((R)-3-phenylpyrrolidine-1-carbonyl)piperidine-3-carboxamide] was tested. Which IC50 did it give?
**A.** 0.052 µM

**Q.** With `CN1C[C@@H](OC(=O)N2CCC(F)(F)C2)C[C@H](C(=O)NO)[C@H]1C(=O)N1CCN(c2ccccc2)CC1` [(3S,5S,6S)-5-(hydroxycarbamoyl)-1-methyl-6-(4-phenylpiperazine-1-carbonyl)piperidin-3-yl 3,3-difluoropyrrolidine-1-carboxylate] as the compound, how does the IC50 read?
**A.** 0.0505 µM

**Q.** Which IC50 does the source give for `O=C(NO)[C@H]1CC(CC(=O)N2CCCC2)CN[C@@H]1C(=O)N1CC[C@H](c2ccccc2)C1` (stereo partly drawn) [(2S,3S)-N-hydroxy-5-(2-oxo-2-(pyrrolidin-1-yl)ethyl)-2-((R)-3-phenylpyrrolidine-1-carbonyl)piperidine-3-carboxamide] here?
**A.** 0.0056 µM

**Q.** How did the IC50 turn out when `CN1C[C@@H](OC(=O)N2CCC2)C[C@H](C(=O)NO)[C@H]1C(=O)N1CCN(c2ccccc2)CC1` [(3S,5S,6S)-5-(hydroxycarbamoyl)-1-methyl-6-(4-phenylpiperazine-1-carbonyl)piperidin-3-yl azetidine-1-carboxylate] was run?
**A.** 0.0445 µM

**Q.** `COC(=O)N1C[C@@H](OC(=O)N2CCCC2)C[C@H](C(=O)NO)[C@H]1C(=O)N1CCN(c2ccccc2)CC1` [(2S,3S,5S)-methyl 3-(hydroxycarbamoyl)-2-(4-phenylpiperazine-1-carbonyl)-5-(pyrrolidine-1-carbonyloxy)piperidine-1-carboxylate] was tested. Which IC50 did it give?
**A.** 0.0081 µM

**Q.** With `O=C(NO)[C@H]1CC(OC(=O)N2CCCC2)CN[C@@H]1C(=O)N1Cc2ccccc2C1` (stereo partly drawn) [(5S,6S)-5-(hydroxycarbamoyl)-6-(isoindoline-2-carbonyl)piperidin-3-yl pyrrolidine-1-carboxylate] as the compound, how does the IC50 read?
**A.** 0.07 µM

**Q.** With `O=C(NO)[C@H]1C[C@H](OC(=O)N2CCCC2)CN[C@@H]1C(=O)N1CC=C(c2ccccc2)C1` [(5S,6S)-5-(hydroxycarbamoyl)-6-(3-phenyl-2,5-dihydro-1H-pyrrole-1-carbonyl)piperidin-3-yl pyrrolidine-1-carboxylate] as the compound, how does the IC50 read?
**A.** 0.011 µM

**Q.** `CN1C[C@@H](OC(=O)N2CCCCC2)C[C@H](C(=O)NO)[C@H]1C(=O)N1CCN(c2ccccc2)CC1` [(3S,5S,6S)-5-(hydroxycarbamoyl)-1-methyl-6-(4-phenylpiperazine-1-carbonyl)piperidin-3-yl piperidine-1-carboxylate] was tested. Which IC50 did it give?
**A.** 0.0073 µM

**Q.** For `CN(C)C(=O)O[C@H]1C[C@H](C(=O)NO)[C@@H](C(=O)N2CCN(c3ccccc3)CC2)N(C)C1` [(3S,5S,6S)-5-(hydroxycarbamoyl)-1-methyl-6-(4-phenylpiperazine-1-carbonyl)piperidin-3-yl dimethylcarbamate], which IC50 is on record?
**A.** 0.031 µM

**Q.** With `O=C(NO)[C@H]1C[C@H](OC(=O)N2CCCC2)CN[C@@H]1C(=O)N1CCC(c2ccccc2)CC1` [(5S,6S)-5-(hydroxycarbamoyl)-6-(4-phenylpiperidine-1-carbonyl)piperidin-3-yl pyrrolidine-1-carboxylate] as the compound, how does the IC50 read?
**A.** 0.042 µM

**Q.** `CN(C(=O)c1ccccc1)C1CN[C@H](C(=O)N2CC=C(c3ccccc3)CC2)[C@@H](C(=O)NO)C1` (stereo partly drawn) [(2S,3S)-N-hydroxy-5-(N-methylbenzamido)-2-(4-phenyl-1,2,3,6-tetrahydropyridine-1-carbonyl)piperidine-3-carboxamide] was tested. Which IC50 did it give?
**A.** 0.01 µM

**Q.** With `CC(C)OC(=O)N(C)C1CN[C@H](C(=O)N2CC=C(c3ccccc3)CC2)[C@@H](C(=O)NO)C1` (stereo partly drawn) [isopropyl-(5S,6S)-5-(hydroxycarbamoyl)-6-(4-phenyl-1,2,3,6-tetrahydropyridine-1-carbonyl)piperidin-3-yl(methyl)carbamate] as the compound, how does the IC50 read?
**A.** 0.0085 µM

**Q.** With `O=C(NO)[C@H]1C[C@@H](OC(=O)N2CCCC2)CN[C@@H]1C(=O)N1CC=C(c2ccccc2)CC1` [(3R,5S,6S)-5-(hydroxycarbamoyl)-6-(4-phenyl-1,2,3,6-tetrahydropyridine-1-carbonyl)piperidin-3-yl pyrrolidine-1-carboxylate] as the compound, how does the IC50 read?
**A.** 0.03 µM

**Q.** `O=C(NO)[C@H]1C[C@H](OC(=O)N2CCCC2)CN[C@@H]1C(=O)N1CCN(c2ccccc2)CC1` [(5S,6S)-5-(hydroxycarbamoyl)-6-(4-phenylpiperazine-1-carbonyl)piperidin-3-yl pyrrolidine-1-carboxylate] was tested. Which IC50 did it give?
**A.** 0.0038 µM

**Q.** For `CN1C[C@@H](OC(=O)N2CCCCCCC2)C[C@H](C(=O)NO)[C@H]1C(=O)N1CCN(c2ccccc2)CC1` [(3S,5S,6S)-5-(hydroxycarbamoyl)-1-methyl-6-(4-phenylpiperazine-1-carbonyl)piperidin-3-yl azocane-1-carboxylate], which IC50 is on record?
**A.** 0.0275 µM

**Q.** For `CN(C(=O)c1ccccc1)C1CN[C@H](C(=O)N2CC[C@H](c3ccccc3)C2)[C@@H](C(=O)NO)C1` (stereo partly drawn) [(2S,3S)-N-hydroxy-5-(N-methylbenzamido)-2-((R)-3-phenylpyrrolidine-1-carbonyl)piperidine-3-carboxamide], which IC50 is on record?
**A.** 0.029 µM

**Q.** How did the IC50 turn out when `O=C(NO)[C@H]1CC(CC(=O)N2CCCC2)CN[C@@H]1C(=O)N1CC=C(c2ccccc2)CC1` (stereo partly drawn) [(2S,3S)-N-hydroxy-5-(2-oxo-2-(pyrrolidin-1-yl)ethyl)-2-(4-phenyl-1,2,3,6-tetrahydropyridine-1-carbonyl)piperidine-3-carboxamide] was run?
**A.** 0.0043 µM

**Q.** Which IC50 does the source give for `CN1C[C@@H](OC(=O)N2CCCCCC2)C[C@H](C(=O)NO)[C@H]1C(=O)N1CCN(c2ccccc2)CC1` [(3S,5S,6S)-5-(hydroxycarbamoyl)-1-methyl-6-(4-phenylpiperazine-1-carbonyl)piperidin-3-yl azepane-1-carboxylate] here?
**A.** 0.0044 µM

**Q.** With `CC(C)C(=O)N(C)C1CN[C@H](C(=O)N2CC=C(c3ccccc3)CC2)[C@@H](C(=O)NO)C1` (stereo partly drawn) [(2S,3S)-N-hydroxy-5-(N-methylisobutyramido)-2-(4-phenyl-1,2,3,6-tetrahydropyridine-1-carbonyl)piperidine-3-carboxamide] as the compound, how does the IC50 read?
**A.** 0.0155 µM
